Experiments:
[1] = molecular target: T1, human CB1 receptor (Homo sapiens, UniProt P21554); assay: Cannabinoid CB1 receptor binding assay ([3H]-CP-55,940 displacement, SK-N-MC cell membranes); conditions: for inhibition at 0.2 µM: 1.5 h, read-out: Cannabinoid CB1 Receptor Binding, percent inhibition
T1 construct: expressed in transfected cells; host or cells: SK-N-MC cells, stably transfected with pcDNA3 CB-1 (human); semi-purified membrane pellet
Procedure: (§1) Binding Assay for CB1 or CB2 Agonists or Inverse Agonists
(§2) The human CB1 and CB2 receptors were stably expressed in SK-N-MC cells transfected with pcDNA3 CB-1 (human) or pcDNA3 CB-2 (human). The cells were grown in T-180 cell culture flasks under standard cell culture conditions at 37° C. in a 5% CO2 atmosphere. The cells were harvested by trysinization and homogenized in a homogenization buffer (10 mM Tris, 0.2 mM MgCl2, 5 mM KCl, with protease inhibitors aprotinin, leupeptin, pepstatin A and bacitracin) and centrifuged (2000 g). The supernatant was then centrifuged in 2M sucrose (31,300 g) to produce a semi-purified membrane pellet. The pellet was resuspended in homogenization and stored at −80° C.
(§3) On the day of the assay, the pellet was thawed on ice and diluted in assay buffer (50 mM Tris-HCl, 5 mM MgCl2, 2.5 mM EDTA, 0.5 mg/mL fatty acid free bovine serum albumin, pH 7.5). The diluted membrane pellet was added with buffer, either a test compound or vehicle standard and the radioligand […] (0.2 nM) to the wells of a 96-well polypropylene plate. Non-specific binding was measured in wells containing W1N 55,212 (10 uM). The plate was covered and incubated for 90 minutes at 30° C. The contents were then aspirated onto a Packard Unifilter GF/C filter bottom plate prewet with 0.5% polyethyleneimine. The wells of the polypropylene plate were rinsed and aspirated seven times with a 0.9% saline-0.5% Tween 20 solution. The Unifilter plate was dried, scintillation cocktail was added to each well and the counts representing binding were quantitated in a TopCount scintillation counter.
(§4) For compounds tested, an IC50 binding value was obtained from percent inhibition studies in which various test concentrations were used. The binding value was calculated by linear regression.
(§5) For compounds without an IC50 binding value, the percent inhibition (%) was obtained at a test concentration of 0.2 μM.

[2] = molecular target: T2, human CB2 receptor (Homo sapiens, UniProt P34972); assay: Cannabinoid CB2 receptor binding assay ([3H]-CP-55,940 displacement, SK-N-MC cell membranes); conditions: 1.5 h; test concentration of 0.2 μM; radioligand CP-55,940 0.2 nM; read-out: Cannabinoid CB2 Receptor Binding, percent inhibition
T2 construct: expressed in transfected cells; host or cells: SK-N-MC cells, stably transfected with pcDNA3 CB-2 (human); semi-purified membrane pellet
T2 sequence (P34972 whole entry): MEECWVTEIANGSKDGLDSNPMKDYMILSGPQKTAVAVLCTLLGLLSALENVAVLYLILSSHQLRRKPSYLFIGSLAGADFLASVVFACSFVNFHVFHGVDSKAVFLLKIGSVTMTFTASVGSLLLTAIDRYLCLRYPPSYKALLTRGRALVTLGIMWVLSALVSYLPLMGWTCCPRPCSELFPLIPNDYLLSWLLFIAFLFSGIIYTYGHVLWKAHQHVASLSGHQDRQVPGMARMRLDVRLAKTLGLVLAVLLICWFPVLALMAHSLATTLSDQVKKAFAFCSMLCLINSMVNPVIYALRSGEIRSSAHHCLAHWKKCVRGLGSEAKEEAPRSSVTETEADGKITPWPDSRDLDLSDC
Procedure: as §1, §2, §3, §4, §5

T1 sequence (P21554 whole entry): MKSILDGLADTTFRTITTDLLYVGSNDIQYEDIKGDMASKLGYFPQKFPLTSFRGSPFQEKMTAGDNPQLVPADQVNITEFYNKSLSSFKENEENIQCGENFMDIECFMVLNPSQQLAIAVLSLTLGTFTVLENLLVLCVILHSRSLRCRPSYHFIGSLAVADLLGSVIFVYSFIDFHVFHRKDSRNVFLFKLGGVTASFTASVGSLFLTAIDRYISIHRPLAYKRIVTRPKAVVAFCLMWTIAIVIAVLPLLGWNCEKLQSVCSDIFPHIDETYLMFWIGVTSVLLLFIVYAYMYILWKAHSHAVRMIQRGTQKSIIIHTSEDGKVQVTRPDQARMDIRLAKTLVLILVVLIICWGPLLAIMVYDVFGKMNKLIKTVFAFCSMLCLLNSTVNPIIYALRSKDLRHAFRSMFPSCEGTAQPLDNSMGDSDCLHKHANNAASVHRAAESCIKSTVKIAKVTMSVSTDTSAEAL

SMILES | inhibition at 0.2 µM [1] [%] | inhibition at 0.2 µM [2] [%] | IC50 [1] [µM]
Cc1c(C(=O)NN2CCCCC2)nn(-c2ccc(Cl)cc2Cl)c1-c1cccs1 [Cpd 10, 1-(2,4-dichloro-phenyl)-4-methyl-5-thiophen-2-yl-1H-pyrazole-3-carboxylic acid piperidin-1-ylamide] | 37 | 6 | –
Cc1c(C(=O)NN2CC3CCCC3C2)nn(-c2ccc(Cl)cc2Cl)c1-c1cccs1 (stereo not shown) [Cpd 11, 1-(2,4-dichloro-phenyl)-4-methyl-5-thiophen-2-yl-1H-pyrazole-3-carboxylic acid (hexahydro-cyclopenta[c]pyrrol-2-yl)-amide] | 53 | 0 | –
Cc1c(C(=O)N[C@@H](C)C2CCCCC2)nn(-c2ccc(Cl)cc2Cl)c1-c1ccc(Cl)s1 [Cpd 12, 5-(5-chloro-thiophen-2-yl)-1-(2,4-dichloro-phenyl)-4-methyl-1H-pyrazole-3-carboxylic acid [(1S)-1-cyclohexyl-ethyl]-amide] | – | 40 | 0.015
Cc1c(C(=O)N[C@H](C)C2CCCCC2)nn(-c2ccc(Cl)cc2Cl)c1-c1ccc(Cl)s1 [Cpd 13, 5-(5-chloro-thiophen-2-yl)-1-(2,4-dichloro-phenyl)-4-methyl-1H-pyrazole-3-carboxylic acid [(1R)-1-cyclohexyl-ethyl]-amide] | – | 37 | 0.074
Cc1c(C(=O)N[C@H](C)c2ccccc2)nn(-c2ccc(Cl)cc2Cl)c1-c1ccc(Cl)s1 [Cpd 14, 5-(5-chloro-thiophen-2-yl)-1-(2,4-dichloro-phenyl)-4-methyl-1H-pyrazole-3-carboxylic acid [(1R)-1-phenyl-ethyl]-amide] | – | 40 | 0.027
CCc1c(C(=O)NN2CCCCC2)nn(-c2ccc(Cl)cc2Cl)c1-c1ccc(Cl)s1 [Cpd 15, 5-(5-chloro-thiophen-2-yl)-1-(2,4-dichloro-phenyl)-4-ethyl-1H-pyrazole-3-carboxylic acid piperidin-1-ylamide] | – | 29 | 0.012
C[C@@H](NC(=O)c1nn(-c2ccc(Cl)cc2Cl)c(-c2cccs2)c1C#N)c1ccccc1 [Cpd 16, 4-cyano-1-(2,4-dichloro-phenyl)-5-thiophen-2-yl-1H-pyrazole-3-carboxylic acid [(1R)-1-phenyl-ethyl]-amide] | 61 | 17 | –
C[C@@H](NC(=O)c1nn(-c2ccc(Cl)cc2Cl)c(-c2cccs2)c1C#N)c1ccccn1 [Cpd 17, 4-cyano-1-(2,4-dichloro-phenyl)-5-thiophen-2-yl-1H-pyrazole-3-carboxylic acid [(1R)-1-pyridin-2-yl-ethyl]-amide] | 25 | 14 | –
C[C@@H](NC(=O)c1nn(-c2ccc(Cl)cc2Cl)c(-c2cccs2)c1C#N)C1CCCCC1 [Cpd 18, 4-cyano-1-(2,4-dichloro-phenyl)-5-thiophen-2-yl-1H-pyrazole-3-carboxylic acid [(1R)-1-cyclohexyl-ethyl]-amide] | 66 | 21 | –
C[C@H](NC(=O)c1nn(-c2ccc(Cl)cc2Cl)c(-c2cccs2)c1C#N)c1ccccc1 [Cpd 19, 4-cyano-1-(2,4-dichloro-phenyl)-5-thiophen-2-yl-1H-pyrazole-3-carboxylic acid [(1S)-1-phenyl-ethyl]-amide] | 45 | 24 | –
N#Cc1c(C(=O)NN2CCCCC2)nn(-c2ccc(Cl)cc2Cl)c1-c1cccs1 [Cpd 20, 4-cyano-1-(2,4-dichloro-phenyl)-5-thiophen-2-yl-1H-pyrazole-3-carboxylic acid piperidin-1-ylamide] | 37 | 9 | –
N#Cc1c(C(=O)N2CCCCC2)nn(-c2ccc(Cl)cc2Cl)c1-c1cccs1 [Cpd 21, 1-(2,4-dichloro-phenyl)-3-(piperidine-1-carbonyl)-5-thiophen-2-yl-1H-pyrazole-4-carbonitrile] | 12 | 3 | –
Cc1c(C(=O)NN2CCCCC2)nn(-c2ccc(Cl)cc2Cl)c1-c1ccc(Br)s1 [Cpd 22, 5-(5-bromo-thiophen-2-yl)-1-(2,4-dichloro-phenyl)-4-methyl-1H-pyrazole-3-carboxylic acid piperidin-1-ylamide] | – | 42 | 0.037
N#Cc1c(C(=O)NN2CCCCC2)nn(-c2ccc(Cl)cc2Cl)c1-c1ccc(Cl)s1 [Cpd 23, 5-(5-chloro-thiophen-2-yl)-4-cyano-1-(2,4-dichloro-phenyl)-1H-pyrazole-3-carboxylic acid piperidin-1-ylamide] | – | 22 | 0.071
C[C@@H](NC(=O)c1nn(-c2ccc(Cl)cc2Cl)c(-c2ccc(Cl)s2)c1C#N)C1CCCCC1 [Cpd 24, 5-(5-chloro-thiophen-2-yl)-4-cyano-1-(2,4-dichloro-phenyl)-1H-pyrazole-3-carboxylic acid [(1R)-1-cyclohexyl-ethyl]-amide] | – | 13 | 0.015
C[C@@H](NC(=O)c1nn(-c2ccc(Cl)cc2Cl)c(-c2ccc(Cl)s2)c1C#N)c1ccccc1 [Cpd 25, 5-(5-chloro-thiophen-2-yl)-4-cyano-1-(2,4-dichloro-phenyl)-1H-pyrazole-3-carboxylic acid [(1R)-1-phenyl-ethyl]-amide] | – | 13 | 0.016
C[C@H](NC(=O)c1nn(-c2ccc(Cl)cc2Cl)c(-c2ccc(Cl)s2)c1C#N)c1ccccc1 [Cpd 26, 5-(5-chloro-thiophen-2-yl)-4-cyano-1-(2,4-dichloro-phenyl)-1H-pyrazole-3-carboxylic acid [(1S)-1-phenyl-ethyl]-amide] | – | 16 | 0.11
C[C@@H](NC(=O)c1nn(-c2ccc(Cl)cc2Cl)c(-c2ccc(Cl)s2)c1C#N)c1ccccn1 [Cpd 27, 5-(5-chloro-thiophen-2-yl)-4-cyano-1-(2,4-dichloro-phenyl)-1H-pyrazole-3-carboxylic acid [(1R)-1-pyridin-2-yl-ethyl]-amide] | 69 | 12 | –
Cc1c(C(=O)NN2CCCCC2)nn(-c2ccc(Cl)cc2Cl)c1-c1ccc(F)s1 [Cpd 28, 1-(2,4-dichloro-phenyl)-5-(5-fluoro-thiophen-2-yl)-4-methyl-1H-pyrazole-3-carboxylic acid piperidin-1-ylamide] | 69 | 20 | –
Cc1c(C(=O)NN2CCCCC2)nn(-c2ccc(Cl)cc2Cl)c1-c1ccc(I)s1 [Cpd 29, 1-(2,4-dichloro-phenyl)-5-(5-iodo-thiophen-2-yl)-4-methyl-1H-pyrazole-3-carboxylic acid piperidin-1-ylamide] | – | 55 | 0.017
Cc1c(C(=O)NN2CCCCC2=O)nn(-c2ccc(Cl)cc2Cl)c1-c1ccc(Cl)s1 [Cpd 30, 5-(5-chloro-thiophen-2-yl)-1-(2,4-dichloro-phenyl)-4-methyl-1H-pyrazole-3-carboxylic acid (2-oxo-piperidin-1-yl)-amide] | 17 | 15 | –
Cc1c(C(=O)N[C@@H](C)c2ccccc2)nn(-c2ccc(Cl)cc2Cl)c1-c1ccc(F)s1 [Cpd 31, 1-(2,4-dichloro-phenyl)-5-(5-fluoro-thiophen-2-yl)-4-methyl-1H-pyrazole-3-carboxylic acid [(1S)-1-phenyl-ethyl]-amide] | 64 | 39 | –
Cc1c(C(=O)N[C@H](C)c2ccccc2)nn(-c2ccc(Cl)cc2Cl)c1-c1ccc(F)s1 [Cpd 32, 1-(2,4-dichloro-phenyl)-5-(5-fluoro-thiophen-2-yl)-4-methyl-1H-pyrazole-3-carboxylic acid [(1R)-1-phenyl-ethyl]-amide] | – | 55 | 0.046
Cc1c(C(=O)N[C@@H](C)C2CCCCC2)nn(-c2ccc(Cl)cc2Cl)c1-c1ccc(F)s1 [Cpd 33, 1-(2,4-dichloro-phenyl)-5-(5-fluoro-thiophen-2-yl)-4-methyl-1H-pyrazole-3-carboxylic acid [(1S)-1-cyclohexyl-ethyl]-amide] | 73 | 41 | –
Cc1c(C(=O)N[C@@H](C)c2ccccn2)nn(-c2ccc(Cl)cc2Cl)c1-c1ccc(F)s1 [Cpd 34, 1-(2,4-dichloro-phenyl)-5-(5-fluoro-thiophen-2-yl)-4-methyl-1H-pyrazole-3-carboxylic acid [(1S)-1-pyridin-2-yl-ethyl]-amide] | 61 | 34 | –
CCc1c(C(=O)NN2CCCCC2)nn(-c2ccc(Cl)cc2Cl)c1-c1ccc(Br)s1 [Cpd 35, 5-(5-bromo-thiophen-2-yl)-1-(2,4-dichloro-phenyl)-4-ethyl-1H-pyrazole-3-carboxylic acid piperidin-1-ylamide] | – | 29 | 0.013

— patent US20070117858A1, “SUBSTITUTED 5-HETEROARYL-1-PHENYL-PYRAZOLE CANNABINOID MODULATORS” (priority 2005, published 2007)
